Read-outs that look alike come from different tables or passages of the source.
Columns and labels:
[1] = test system: zebrafish embryos treated with DOX (cardiomyopathy phenotype); assay: Zebrafish doxorubicin cardiomyopathy model (rescue from phenotype); type: in vivo; settings: for rescue from the doxorubicin cardiomyopathy phenotype: zebrafish co-treated with doxorubicin, inhibitors at 10 μM; for protection against doxorubicin cardiotoxicity in the zebrafish model: co-treatment with doxorubicin
Experimental: Zebrafish embryos at 30 hours post-fertilization were treated with DOX at 100 μM in 96-well plates as previously described (Liu et al., 2014). Tested compounds were dissolved in DMSO and added at concentrations ranging from 3 nM to 10 μM (n=6 fish per dose; <1% DMSO v/v). The cardiomyopathy phenotype (decreased cardiac contraction, pericardial edema, and decreased tail blood flow) was assessed under light microscopy (5× magnification) at 40 hours post-treatment (hpt). Percent rescue from the cardiomyopathy phenotype was calculated for each concentration tested. Zebrafish were considered to be rescued from DOX-induced cardiomyopathy if all three features of the phenotype were absent. For the tested compounds, each dose-response experiment was repeated three times.
Dose-response curves were constructed using Prism (GraphPad).
Zebrafish were treated with DOX and assessed for the development of the cardiomyopathy phenotype (decreased cardiac contraction, pericardial edema, and decreased tail blood flow). Zebrafish were considered to be rescued if all three features of the cardiomyopathy phenotype were absent upon co-treatment with a tested compound. Referring to FIGS. 3-9, data are depicted as mean+/−standard error (n=6 fish per dose; each experiment performed in triplicate).

HL-1 cardiomyocytes = assay: Cultured HL-1 cardiomyocyte model (DOX-induced apoptosis, viability); type: cell-based, mouse; settings: Mus musculus, HL-1; doxorubicin 5 μM, viability after 18 hours, CellTiter-Glo; read-out: EC50 in HL-1 Cells
Experimental: The cardiomyocyte cell line HL-1 derived from mouse atrial tumor was a gift from W. Claycomb. Cells were cultured as previously published (Claycomb et al., 1998) and treated with doxorubicin 5 μM with or without the tested compounds at a concentration up to 50 μM. Viability was assessed after 18 hours of using a CellTiter-Glo Luminescent assay from Promega. Each dose-response experiment was repeated three times.
Compounds were tested in HL-1 cultured cardiomyocytes to assess for efficacy in preventing DOX-induced apoptosis. Cell viability was assessed as described in the materials and methods section.

zebrafish embryos = assay: Zebrafish toxicity in the absence of doxorubicin (TD50); settings: without doxorubicin
Experimental: Dose-response curves were constructed using Prism (GraphPad). Raw data representing percent rescue at each dose was log-transformed, and EC50 values were calculated using nonlinear regression analysis. The median toxic dose (TD50) was defined for each compound by assessing for pericardial edema, non-specific deformities, and death in the absence of doxorubicin treatment (data not shown). Concentrations at and above the TD50 (toxic dose) were excluded from dose-response curves.

sqstm1 = assay: Zebrafish proteomics; type: in vivo; settings: zebrafish embryos, visnagin 20 μM
CYP2D6 = CYP2D6 (Homo sapiens (Human), UniProt P10635); assay: CYP inhibition assay, human liver microsomes; type: biochemical; settings: dextromethorphan 5 μM, reference quinidine
Experimental: (§1) CYP inhibition experiments were performed by Cerep Panlabs (Eurofins) using human liver microsomes and the following substrates: phenacetin 10 μM (CYP1A), buproprion 100 μM (CYP2B6), paclitaxel 10 μM (CYP2C8), diclofenac 10 μM (CYP 2C9), omeprazole 0.5 μM (CYP2C19), dextromethorphan 5 μM (CYP2D6), and testosterone 50 μM (CYP3A). Metabolites of each substrate were measured using LC-MS/MS. Mean percent inhibition was calculated using the following reference inhibitors: furafylline (CYP1A), clopidogrel (CYP2B6), montelukast (CYP2C8), sulfaphenazole (CYP2C9), oxybutynin (CYP2C19), quinidine (CYP2D6), and ketoconazole (CYP3A). […] All concentrations were tested in duplicate to obtain the final results.
(§2) The ability of the tested compounds to inhibit a panel of CYP enzymes in vitro was assessed using a series of human liver microsome assays.

CYP2C8 = CYP2C8 (Homo sapiens (Human), UniProt P10632); assay: CYP inhibition assay, human liver microsomes; type: biochemical; settings: paclitaxel 10 μM, reference montelukast
Experimental: as §1, §2

CYP2C19 = CYP2C19 (Homo sapiens (Human), UniProt P33261); assay: CYP inhibition assay, human liver microsomes; type: biochemical; settings: omeprazole 0.5 μM, reference oxybutynin
Experimental: as §1, §2

CYP3A = CYP3A (Homo sapiens, UniProt P08684); assay: CYP inhibition assay, human liver microsomes; type: biochemical; settings: testosterone 50 μM, reference ketoconazole
Experimental: as §1, §2

CYP2C9 = CYP2C9 (Homo sapiens (Human), UniProt P11712); assay: CYP inhibition assay, human liver microsomes; type: biochemical; settings: diclofenac 10 μM, reference sulfaphenazole
Experimental: as §1, §2

CYP1A [2] = molecular target: CYP1A (Homo sapiens (Human), UniProt P05177); assay: CYP inhibition assay, human liver microsomes; type: biochemical
Experimental: as §1, §2

dhrs13l1 = assay: Zebrafish proteomics; type: in vivo; settings: zebrafish embryos, visnagin 20 μM
LOC100332237 = assay: Zebrafish proteomics; type: in vivo; settings: zebrafish embryos, visnagin 20 μM
thbs1b = assay: Zebrafish proteomics; type: in vivo; settings: zebrafish embryos, visnagin 20 μM
gstp2 = assay: Zebrafish proteomics; type: in vivo; settings: zebrafish embryos, visnagin 20 μM
rad9a = assay: Zebrafish proteomics; type: in vivo; settings: zebrafish embryos, visnagin 20 μM
cyp1b1 = assay: Zebrafish proteomics; type: in vivo; settings: zebrafish embryos, visnagin 20 μM
Experimental: (§3) The proteomics analysis was carried out as described in the material and methods section. All protein abundance values are normalized to DMSO-treated control zebrafish. * p<0.05 compared to the DMSO control using the Benjamini-Hochberg method of correcting for multiple hypotheses.

CYP1A [3] = assay: Zebrafish proteomics; type: in vivo; settings: zebrafish embryos, visnagin 20 μM
Experimental: as §3

cyp1c1 = assay: Zebrafish proteomics; type: in vivo; settings: zebrafish embryos, visnagin 20 μM
Experimental: as §3

slc2a1a = assay: Zebrafish proteomics; type: in vivo; settings: zebrafish embryos, visnagin 20 μM
[4] = Danio rerio, rescue from DOX (100 μM) cardiomyopathy phenotype, 40 hours post-treatment, read-out: EC50 is zebrafish
[5] = Danio rerio, rescue from DOX cardiomyopathy phenotype, read-out: EC50 in the zebrafish DOX model

Chain of CYP2C8 (P10632 whole entry): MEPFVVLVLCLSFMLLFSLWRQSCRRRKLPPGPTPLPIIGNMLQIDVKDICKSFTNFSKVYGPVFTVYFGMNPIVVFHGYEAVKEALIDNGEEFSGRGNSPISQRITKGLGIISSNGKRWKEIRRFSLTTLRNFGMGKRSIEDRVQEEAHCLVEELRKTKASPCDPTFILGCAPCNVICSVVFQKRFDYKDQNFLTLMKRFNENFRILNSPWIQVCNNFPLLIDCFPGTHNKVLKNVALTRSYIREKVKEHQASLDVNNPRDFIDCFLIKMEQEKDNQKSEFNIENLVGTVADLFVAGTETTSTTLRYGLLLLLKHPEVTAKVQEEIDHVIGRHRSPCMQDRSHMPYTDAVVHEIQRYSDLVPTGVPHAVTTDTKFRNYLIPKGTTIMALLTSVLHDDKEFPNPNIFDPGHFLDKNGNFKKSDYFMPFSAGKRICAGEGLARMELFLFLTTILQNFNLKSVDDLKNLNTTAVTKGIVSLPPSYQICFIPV
Chain of CYP2D6 (P10635 whole entry): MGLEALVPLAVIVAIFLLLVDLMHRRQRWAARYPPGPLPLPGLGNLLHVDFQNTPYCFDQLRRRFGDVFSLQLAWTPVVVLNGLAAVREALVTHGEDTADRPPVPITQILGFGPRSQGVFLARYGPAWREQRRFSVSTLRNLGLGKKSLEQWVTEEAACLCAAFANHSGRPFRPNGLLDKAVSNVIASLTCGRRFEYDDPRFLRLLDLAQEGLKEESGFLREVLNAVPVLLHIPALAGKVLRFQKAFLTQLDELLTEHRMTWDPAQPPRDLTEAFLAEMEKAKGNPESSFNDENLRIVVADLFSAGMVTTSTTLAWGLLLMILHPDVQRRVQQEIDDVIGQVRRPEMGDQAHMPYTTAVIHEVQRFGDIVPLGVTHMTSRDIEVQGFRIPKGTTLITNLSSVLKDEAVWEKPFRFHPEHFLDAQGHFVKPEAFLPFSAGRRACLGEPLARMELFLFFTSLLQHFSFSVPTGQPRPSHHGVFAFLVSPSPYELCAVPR
Chain of CYP2C19 (P33261 whole entry): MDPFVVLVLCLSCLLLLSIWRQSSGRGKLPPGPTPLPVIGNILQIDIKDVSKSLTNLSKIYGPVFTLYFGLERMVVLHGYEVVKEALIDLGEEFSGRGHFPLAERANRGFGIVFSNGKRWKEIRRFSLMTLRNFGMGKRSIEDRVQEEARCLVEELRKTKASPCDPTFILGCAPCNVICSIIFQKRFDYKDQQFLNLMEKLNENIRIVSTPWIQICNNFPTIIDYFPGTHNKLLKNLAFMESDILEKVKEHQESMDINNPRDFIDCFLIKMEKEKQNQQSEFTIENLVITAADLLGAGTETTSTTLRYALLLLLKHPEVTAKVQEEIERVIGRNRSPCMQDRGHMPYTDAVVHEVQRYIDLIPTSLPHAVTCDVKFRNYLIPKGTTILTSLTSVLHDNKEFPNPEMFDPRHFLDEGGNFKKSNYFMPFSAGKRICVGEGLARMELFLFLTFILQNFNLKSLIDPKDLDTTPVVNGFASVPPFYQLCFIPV
Chain of CYP2C9 (P11712 whole entry): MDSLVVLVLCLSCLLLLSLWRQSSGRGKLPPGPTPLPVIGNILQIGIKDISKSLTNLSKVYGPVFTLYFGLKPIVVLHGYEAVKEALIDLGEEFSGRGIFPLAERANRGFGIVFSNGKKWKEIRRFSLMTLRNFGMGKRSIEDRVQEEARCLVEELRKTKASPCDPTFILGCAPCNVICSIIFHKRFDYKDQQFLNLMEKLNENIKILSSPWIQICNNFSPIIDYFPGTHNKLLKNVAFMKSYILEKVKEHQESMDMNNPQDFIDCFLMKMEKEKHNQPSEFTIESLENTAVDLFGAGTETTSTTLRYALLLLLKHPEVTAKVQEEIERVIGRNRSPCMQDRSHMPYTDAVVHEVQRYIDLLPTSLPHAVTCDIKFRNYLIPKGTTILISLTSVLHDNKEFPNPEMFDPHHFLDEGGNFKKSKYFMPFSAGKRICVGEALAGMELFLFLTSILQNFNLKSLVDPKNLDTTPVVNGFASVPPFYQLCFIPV
Chain of CYP1A (Homo sapiens (Human), UniProt P05177) (P05177 whole entry): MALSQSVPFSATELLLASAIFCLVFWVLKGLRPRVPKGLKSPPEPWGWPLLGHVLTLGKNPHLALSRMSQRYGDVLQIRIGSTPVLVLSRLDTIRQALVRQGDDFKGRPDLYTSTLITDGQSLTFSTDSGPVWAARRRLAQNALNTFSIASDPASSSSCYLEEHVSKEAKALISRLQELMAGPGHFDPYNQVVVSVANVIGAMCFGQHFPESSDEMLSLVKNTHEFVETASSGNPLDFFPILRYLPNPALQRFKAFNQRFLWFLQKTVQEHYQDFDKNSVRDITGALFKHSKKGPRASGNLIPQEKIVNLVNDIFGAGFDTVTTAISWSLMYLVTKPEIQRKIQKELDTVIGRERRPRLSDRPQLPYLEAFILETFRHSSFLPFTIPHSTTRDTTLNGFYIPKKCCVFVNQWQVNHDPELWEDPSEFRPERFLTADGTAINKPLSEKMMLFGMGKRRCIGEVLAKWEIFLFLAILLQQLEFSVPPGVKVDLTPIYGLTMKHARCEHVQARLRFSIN
Chain of CYP3A (P08684 2-503 limits assumed): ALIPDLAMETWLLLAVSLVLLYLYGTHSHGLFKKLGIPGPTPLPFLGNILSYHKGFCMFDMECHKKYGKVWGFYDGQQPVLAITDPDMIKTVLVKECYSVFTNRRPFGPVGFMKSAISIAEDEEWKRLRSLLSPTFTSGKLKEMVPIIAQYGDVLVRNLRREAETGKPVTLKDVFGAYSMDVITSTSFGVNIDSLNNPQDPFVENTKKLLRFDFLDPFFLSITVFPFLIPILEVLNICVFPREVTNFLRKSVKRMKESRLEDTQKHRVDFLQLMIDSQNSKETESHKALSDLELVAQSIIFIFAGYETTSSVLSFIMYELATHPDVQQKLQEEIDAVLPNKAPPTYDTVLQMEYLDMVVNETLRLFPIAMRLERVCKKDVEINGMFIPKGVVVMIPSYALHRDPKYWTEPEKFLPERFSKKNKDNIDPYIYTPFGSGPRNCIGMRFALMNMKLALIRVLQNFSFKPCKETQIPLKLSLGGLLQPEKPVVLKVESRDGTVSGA

Cc1ccccc1N=Nc1ccc(NC(=O)c2ccnn2C)c(C)c1 [CH-233191]
rescue from the doxorubicin cardiomyopathy phenotype [1]: significant rescue | protection against doxorubicin cardiotoxicity in the zebrafish model [1]: prevented DOX cardiomyopathy

CC(C)(C)OC(=O)NCCOc1c2ccoc2cc2oc(=O)ccc12 [Example 3]
EC50 [1, 4]: 3 nM | EC50 (HL-1 cardiomyocytes): > 50000 nM

COC(=O)c1csc(C(=O)c2c[nH]c3ccccc23)n1 [ITE, methyl 2-(1H-indole-3-carbonyl)-1,3-thiazole-4-carboxylate]
toxicity to zebrafish embryos without doxorubicin (zebrafish embryos): not toxic

c1cc2ccc3cccc4ccc(c1)c2c34 [pyrene]
EC50 [1, 5]: 3700 nM | rescue from the doxorubicin cardiomyopathy phenotype [1]: significant rescue | protection against doxorubicin cardiotoxicity in the zebrafish model [1]: prevented DOX cardiomyopathy

CCSC(=O)NCCOc1c2ccoc2cc2oc(=O)ccc12 [Example 5, S-ethyl (2-((7-oxo-7H-furo[3,2-g]chromen-4-yl)oxy)ethyl)carbamothioate]
EC50 [1, 4]: 3 nM

CC(C)(C)OC(=O)N1CC(COc2c3ccoc3cc3oc(=O)ccc23)C1 [Example 4, tert-butyl 3-(((7-oxo-7H-furo[3,2-g]chromen-4-yl)oxy)methyl)azetidine-1-carboxylate]
EC50 [1, 4]: 10 nM | EC50 (HL-1 cardiomyocytes): > 50000 nM

O=c1ccc2c(OCC3CO3)c3ccoc3cc2o1 (stereo not drawn) [Example 1, 4-(oxiran-2-ylmethoxy)-7H-furo[3,2-g]chromen-7-one]
EC50 [1, 4]: 52 nM | EC50 (HL-1 cardiomyocytes): > 50000 nM

4-ethoxy-7-methyl-5H-furo[3,2-g][1]-benzopyran-5-one [visnagin]
Protein Abundance (Normalized to DMSO) sqstm1 (sqstm1; 40 hours post-treatment): 0.98 | DOX/DOX+ visnagin protein abundance ratio sqstm1 (sqstm1): 2.43 | Mean % Inhibition CYP2D6 (CYP2D6): 9.9% | Mean % Inhibition CYP2C8 (CYP2C8): 8.1% | Mean % Inhibition CYP2C19 (CYP2C19): 1.2% | Mean % Inhibition CYP3A (CYP3A): 4.2% | Mean % Inhibition CYP2C9 (CYP2C9): 1.7% | IC50 (CYP1A [2]): 240 nM | Protein Abundance (Normalized to DMSO) dhrs13l1 (dhrs13l1; 40 hours post-treatment): 0.89 | DOX/DOX+ visnagin protein abundance ratio dhrs13l1 (dhrs13l1): 2.79 | Protein Abundance (Normalized to DMSO) LOC100332237 (LOC100332237; 40 hours post-treatment): 0.96 | DOX/DOX+ visnagin protein abundance ratio LOC100332237 (LOC100332237): 2.34 | Protein Abundance (Normalized to DMSO) thbs1b (thbs1b; 40 hours post-treatment): 0.89 | DOX/DOX+ visnagin protein abundance ratio thbs1b (thbs1b): 2.39 | Protein Abundance (Normalized to DMSO) gstp2 (gstp2; 40 hours post-treatment): 0.89 | DOX/DOX+ visnagin protein abundance ratio gstp2 (gstp2): 2.14 | Protein Abundance (Normalized to DMSO) rad9a (rad9a; 40 hours post-treatment): 1.15 | DOX/DOX+ visnagin protein abundance ratio rad9a (rad9a): 2.50 | Protein Abundance (Normalized to DMSO) cyp1b1 (cyp1b1; 40 hours post-treatment): 0.94 | DOX/DOX+ visnagin protein abundance ratio cyp1b1 (cyp1b1): 5.31 | Protein Abundance (Normalized to DMSO) cyp1a (CYP1A [3]; 40 hours post-treatment): 0.84 | DOX/DOX+ visnagin protein abundance ratio cyp1a (CYP1A [3]): 7.03 | Protein Abundance (Normalized to DMSO) cyp1c1 (cyp1c1; 40 hours post-treatment): 0.80 | DOX/DOX+ visnagin protein abundance ratio cyp1c1 (cyp1c1): 7.57 | Protein Abundance (Normalized to DMSO) slc2a1a (slc2a1a; 40 hours post-treatment): 0.83 | DOX/DOX+ visnagin protein abundance ratio slc2a1a (slc2a1a): 2.23

CC(C)(C)OC(=O)NCCOc1c2ccoc2cc2oc(=S)ccc12 [Example 7, tert-butyl (2-((7-thioxo-7H-furo[3,2-g]chromen-4-yl)oxy)ethyl)carbamate]
EC50 [1, 4]: 258 nM

O=c1cc(-c2ccccc2)oc2c1ccc1ccccc12 [α-naphthoflavone]
EC50 ([1]; rescue from DOX (100 μM) cardiomyopathy phenotype, 40 hours post-treatment, read-out: EC50 is zebrafish): 293 nM | rescue from the doxorubicin cardiomyopathy phenotype [1]: significant rescue | protection against doxorubicin cardiotoxicity in the zebrafish model [1]: prevented DOX cardiomyopathy

COc1cc(C=Cc2ccc(OC)cc2OC)cc(OC)c1 [2,4,3′,5′-tetramethoxystilbene]
EC50 [1, 5]: 8600 nM | rescue from the doxorubicin cardiomyopathy phenotype [1]: significant rescue | protection against doxorubicin cardiotoxicity in the zebrafish model [1]: prevented DOX cardiomyopathy

O=C(NCCCOc1c2ccoc2cc2oc(=O)ccc12)Oc1ccccc1 [Example 6]
EC50 [1, 4]: 33 nM | EC50 (HL-1 cardiomyocytes): > 50000 nM

Source: patent publication US11396516B2, “Tricyclic compounds as Cyp1 inhibitors” (The General Hospital Corporation, priority 2017, dated 2022)
